By melting point is commonly meant the temperature, or range, at which the solid turns liquid.

“And” between values parts separate entries of the source, which are not always exact repeats. Equal entries are not always repeated. Structures can show the parent of a compound that is named as a salt.

The text below walks through data of the Bradley open melting point set (2014).

`N#CCS(=O)(=O)c1ccc(F)cc1` [4-fluorophenylsulfonylacetonitrile] gave a melting point of 91 °C.
The result for `COc1ccc(OC)c(C(C)=O)c1` [2',5'-dimethoxyacetophenone] reads 19 °C; that for `Nc1cccnc1[N+](=O)[O-]` [3-amino-2-nitropyridine], 192 °C; that for `c1ccc(/N=N/c2ccccc2)cc1` [(E)-Diphenyldiazene], 68.5 °C.
The result for `COc1ccc(-c2csc(C(C#N)=Cc3ccc(O)cc3)n2)cc1` reads 186 °C; that for `CC(/C=C(\C)C#Cc1ccccc1)=N/Nc1ccc([N+](=O)[O-])cc1[N+](=O)[O-]`, 198 °C.
For the compound `C=C(c1ccccc1)c1ccccc1` [1,1-diphenylethene], the melting point stood at 8 °C.
The result for `O=C(O)c1ccc([N+](=O)[O-])cc1` [p-nitrobenzoic_acid] reads 241 °C; that for `COP(=S)(OC)Oc1ccc([N+](=O)[O-])cc1` [O,O-Dimethyl O-(4-nitrophenyl) phosphorothioate], 36 °C.
The result for `C=C(C)CC1(CC)C(=O)NC(=S)NC1=O` [methallatal] reads 160 °C; that for `CCC(=O)c1cc(O)ccc1O` [2',5'-dihydroxypropiophenone], 98 °C.
Turning to `COc1ccc([N+](=O)[O-])cc1` [1-Methoxy-4-nitrobenzene], the melting point was 48 °C.
As for `Cc1ccc2oc(-c3ccc(O)cc3)cc(=O)c2c1` [4'-hydroxy-6-methylflavone], the figure is 241 °C; as for `Oc1cccc(Cl)c1Cl` [2,3-Dichlorophenol], 56 °C.
The result for `CC1(C)[C@H]2CC[C@]1(C)[C@H](O)C2` [borneol] reads 207 °C; that for `CC(=O)Nc1ccc(Cl)cc1F` [2-fluoro-4-chloroacetanilide], 157 °C; that for `CCCCNc1cc(C(=O)O)cc(S(N)(=O)=O)c1Oc1ccccc1` [bumetanide], 230 °C.
As for `Nc1ccc(Cl)cc1N` [4-Chlorobenzene-1,2-diamine], the figure is 68.5 °C.
Turning to `ClCc1c2ccccc2cc2ccccc12` [9-(chloromethyl)anthracene], the melting point came to 140 °C.
As for `COC(C)(C)C` [tert-butyl methyl ether], the figure is -109 °C; as for `CC1=CC(=O)OC1=O` [citraconic anhydride], 8 °C.
`C[C@]12CC[C@@H]3c4ccc(O)cc4CC[C@H]3[C@@H]1CC[C@@H]2O` [estradiol] displayed a melting point of 176 °C.
For `NCCO` [2-Aminoethanol], the melting point was 11 °C.
Compound `COc1ccc(CCCC(=O)O)cc1` [4-(4-methoxyphenyl)butanoic acid] showed a melting point of 59 °C.
Take `CC(C)NCC(O)COc1cccc2ccccc12` (configuration not stated) [propranolol]: the melting point came to 129 °C.
The result for `COC(=O)/C=C/C(=O)OC` [dimethyl fumarate] reads 104 °C; that for `CC1=CC=C(C)C2=C(C)C=CC(C)=C1C2` [2,5,7,10-tetramethylbicyclo[4.4.1]undeca-1,3,5,7,9-pentaene], 72 °C; that for `CCOC(=O)C(=O)Nc1ccccc1` [ethyl oxanilate], 67 °C.
Regarding `Cc1ccc(Cc2ccccc2)cc1` [4-methyldiphenylmethane], the melting point came to 5 °C.
As for `Nc1ccccc1` [Aniline], the figure is -6 °C; as for `O=C(O)/C=C/c1ccccc1` [(2E)-3-Phenylacrylic acid], 133 °C.
The result for `CC(C)C(C)(C)C(C)(C)C` [2,2,3,3,4-pentamethylpentane] reads -36 °C; that for `c1ccc(-c2ccccc2-c2ccccc2)cc1` [o-terphenyl], 57 °C.
`C=CCCCCCCCCCCC` [1-tridecene]: the melting point is -23 °C.
Regarding `O=C(O)CC1CCCC1=O` (configuration not stated) [2-oxocyclopentylacetic acid], the melting point is 49 °C.
As for `Nc1cc(N2CCCCC2)nc(N)[n+]1[O-]` [minoxidil], the figure is 248 °C; as for `CC(=O)NS(=O)(=O)c1ccc(N)cc1` [sulfacetamide], 183 °C; as for `CCOC(=O)c1ccc(NC(=O)C(F)(F)C(F)(F)C(F)(F)C(F)(F)C(F)(F)C(F)(F)C(F)(F)C(F)(F)F)cc1`, 136 °C.
Turning to `O=C(O)c1cc(Cl)ccc1/N=N/C1SC(=S)NC1=O` (configuration not stated), the melting point was determined as 211 °C.
The result for `O=[N+]([O-])c1ccc(Cc2ccccn2)c([N+](=O)[O-])c1` [2-(2,4-Dinitrobenzyl)pyridine] reads 92 °C; that for `c1ccc(CCc2ccccc2)cc1` [bibenzyl], 55 °C; that for `CCSc1nnn[nH]1` [5-(ethylthio)-1h-tetrazole], 76 °C.
In turn, `C=CCCCCCCCCCC` [Dodec-1-ene] showed a melting point of -35 °C.
The result for `Nc1ccc(Nc2ccccc2)cc1` [N-phenyl-p-phenylenediamine] reads 74 °C; that for `O=C(O)c1ccccc1` [Benzoic Acid], 122 °C; that for `O=C1c2ccccc2Cc2ccccc21` [anthrone], 157 °C.
The result for `O=C(O)c1cc2cc(Br)ccc2c(Br)c1O` [1,6-dibromo-2-hydroxynaphthalene-3-carboxylic acid] reads 251 °C; that for `CC(=O)ON(/C=C1\C(=O)C2(C)CCC1C2(C)C)c1ccccc1` (configuration not stated), 163 °C.
The result for `C=CC1CC=CCC1` (configuration not stated) [4-Vinylcyclohexene] reads -101 °C; that for `O=C(c1ccccc1)c1cc(C(=O)c2ccccc2)cc(C(=O)c2ccccc2)c1` [1,3,5-tribenzoylbenzene], 118 °C.
`O=[N+]([O-])c1ccc(F)c([N+](=O)[O-])c1` [1-fluoro-2,4-dinitrobenzene] had a melting point of 27 °C.
Regarding `CCCCc1ccc(NC(=O)c2ccc(OC)cc2)cc1` [benzamide, N-(4-butylphenyl)-4-methoxy-], the melting point came to 147 °C.
Turning to `O=C(O)c1cc([N+](=O)[O-])ccc1Cl` [2-chloro-5-nitrobenzoic acid], the melting point stood at 166 °C.
Compound `CC(=O)Nc1ccccc1` [acetanilide] registered a melting point of 114 °C.
As for `C1=CC2C(C1)[C@@H]1C=C[C@H]2C1` (some centres not stated) [Dicyclopentadiene], the figure is 32.5 °C; as for `O=[N+]([O-])c1ccc(-c2ccc([N+](=O)[O-])cc2Cl)cc1` [2-chloro-4,4'-dinitrobiphenyl], 145 °C.
As for `CCCCCCCCCCCCN(CCCCCCCCCCCC)CCCCCCCCCCCC` [tri-n-dodecylamine], the figure is 15 °C; as for `O=C(Oc1ccc([N+](=O)[O-])cc1)c1ccccc1` [4-nitrophenyl benzoate], 143 °C.
As for `CCOC(=O)c1cc(C)nn1C(=O)OCC` [diethyl 3-methyl-1H-pyrazole-1,5-dicarboxylate], the melting point worked out at 81 °C.
As for `O=C(O)Cc1ccc(Cl)cc1` [4-chlorophenylacetic acid], the figure is 105 °C.
The result for `CN1CC(Br)C(=O)NC1=O` (configuration not stated) [5-bromo-1-methyldihydropyrimidine-2,4(1H,3H)-dione] reads 149 °C; that for `OB(O)c1cccc(C(F)(F)F)c1` [3-(trifluoromethyl)benzeneboronic acid], 164 °C.
For the compound `OC(C(F)(F)F)C(F)(F)F` [1,1,1,3,3,3-hexafluoro-2-propanol], the melting point was -3 °C.
In turn, `Nc1ccccc1[N+](=O)[O-]` [2-Nitroaniline] displayed a melting point of 72 °C.
`CCC(C)c1ccccc1` (configuration not stated) [sec-butylbenzene] showed a melting point of -75 °C.
As for `CCOC(=O)c1ccc(C(=O)OCC)cc1` [diethyl terephthalate], the figure is 45 °C; as for `CN(C)c1ccncc1` [4-(dimethylamino)pyridine], 112 °C.
The result for `C=C(C)[C@H]1Cc2c(ccc3c2O[C@@H]2COc4cc(OC)c(OC)cc4[C@@H]2C3=O)O1` reads 166 °C; that for `Oc1ccc(-c2ccc(O)cc2)cc1` [4,4'-dihydroxybiphenyl], 282 °C; that for `CCOc1ccc(NC(=O)CN)cc1` [Phenokoll], 101 °C.
The result for `Cc1cc(C)c(NC(=O)CN(CC(=O)O)CC(=O)O)c(C)c1Br` reads 194 °C.
With `O=C(O)CC(CC(=O)O)C(=O)O` [tricarballylic acid], the melting point is 160 °C.
On to `O=C1Cc2ccccc2C(=O)O1` [homophthalic anhydride], for which the melting point came to 142 °C.
Compound `O=C1CCc2ccc(F)cc21` [6-fluoro-1-indanone] displayed a melting point of 58 °C.
As for `C=CCCCC` [1-hexene], the figure is -140 °C.
`CCCCc1ccc(O)cc1` [4-n-butylphenol] came in with a melting point of 22 °C.
As for `CCC(C)C` [Isopentane], the figure is -160 °C.
As for `CN1C(C(=O)Nc2ccccn2)=C(O)c2ccccc2S1(=O)=O` [piroxicam], the figure is 200 °C and 199 °C; as for `OC(CCN1CCCCC1)(c1ccccc1)c1ccccc1` [pridinol], 120 °C; as for `C=C[Si]1(C)O[Si](C)(C=C)O[Si](C)(C=C)O[Si](C)(C=C)O1` (configuration not stated) [2,4,6,8-tetramethyl-2,4,6,8-tetravinylcyclotetrasiloxane], -43 °C.
Compound `O=C1c2ccccc2C(=O)N1c1nc2ccccc2[nH]1` [2-(1H-Benzimidazol-2-yl)-1H-isoindole-1,3(2H)-dione] showed a melting point of 274 °C.
`O=C(/C=C/c1ccc(-c2ccc(Cl)cc2)o1)c1ccccc1` [(2E)-3-[5-(4-Chlorophenyl)-2-furyl]-1-phenylprop-2-en-1-one] showed a melting point of 127 °C.
For `Oc1c(Cl)cccc1Cl` [2,6-Dichlorophenol], the melting point was 68.5 °C.
The result for `CCOC(=O)CC(C)C` [ethyl_isovalerate] reads -99 °C.
The result for `O=C1CN(/N=C/c2ccc([N+](=O)[O-])o2)C(=O)N1` [Nitrofurantoin] reads 268 °C.
With `C[C@]12CCC(=O)C=C1CC[C@@H]1[C@@H]2[C@@H](O)C[C@@]2(C)[C@H]1CC[C@]2(O)C(=O)CO` [Hydrocortisone], the melting point stood at 218 °C.
In turn, `CCCCCCCCCCNCCCCCCCCCC` [di-n-decylamine] came in with a melting point of 37 °C.
